{"source": "patent US20240285596A1", "about": "“SOLID DOSAGE FORMS AND DOSING REGIMENS COMPRISING (2R,3S,4S,5R)-4-[[3-(3,4-DIFLUORO-2-METHOXY-PHENYL)-4,5-DIMETHYL-5-(TRIFLUOROMETHYL) TETRAHYDROFURAN-2-CARBONYL]AMINO]PYRIDINE-2-CARBOXAMIDE” (VERTEX PHARMACEUTICALS INCORPORATED, priority 2021, published 2024)", "key": {"[1]": {"tested_on": "subjects with pain following bunionectomy", "test": "Randomized, double-blind, placebo-controlled study of efficacy and safety in subjects with pain following bunionectomy", "settings": "for Mean SPID48: oral, NPRS 0-48 h", "quoted_text": "Bunionectomy is a well-established, multi-dose, surgical, acute pain model. A randomized, double-blind study design was used to avoid observer bias and reduce symptoms or outcomes arising from the subjects' knowledge of treatment.\nMale and female patients between the ages of 18 and 75 years (inclusive) with pain that is ≥4 on an 11-point Numeric Pain Rating Scale (NPRS) and is moderate or severe on the Verbal Categorical Rating Scale (VRS) after bunionectomy are included in the study.\nThe investigational drug was administered orally in 10 mg tablets. […] The investigational drug was administered every 12 hours (q12 h). A low, mid, and high dosing regime were tested. The first dose in the low dosing regime was 20 mg, and the subsequent doses were 10 mg g12 h. The first dose in the mid dosing regime was 60 mg, and the subsequent doses were 30 mg g12 h. The first dose in the high dosing regime was 100 mg, and the subsequent doses were 50 mg g12 h.\nAfter a screening period, subjects receive a primary unilateral first metatarsal bunionectomy repair on Day minus one under regional anesthesia (Mayo and popliteal block). A continuous popliteal sciatic block infusion (0.2% ropivacaine) is started after surgery, and remains in place until approximately 3 AM on Day 1. After removal of the popliteal sciatic block, each subject is randomized when the subject requests the first dose of study drug for pain relief and reports pain ≥4 on the NPRS and moderate or severe pain on the VRS.\nRandomization was stratified by site and baseline NPRS (<8 versus ≥8). To maintain the blind, all subjects receive the same number of capsules in a double-dummy design.\nHB/APAP placebo capsules were administered every 6 hours (q6 h).\nThe final dose of HB/APAP was given 42 hours after the first dose.\n11-point (0 to 10) Numeric Pain Rating Scale: NPRS scores are frequently used in bunionectomy studies and are recognized by the FDA as a valid pain intensity measure. On the 11-point NPRS, a score of 0 denotes no pain, and a score of 10 denotes the worst pain intensity imaginable. Subjects reported their pain on the 11-point NPRS immediately before their first dose of the study drug (baseline NPRS score) and at intervals over 48 hour period (i.e. 0.5, 1, 1.5, 2, 3, 4, 5, 6, 8, 12, 16, 20, 24, 28, 32, 36, 40, 44, and 48 hours (±5 minutes)) after the first dose of the study drug. Pain intensity is also recorded on the NPRS immediately before each administration of rescue medication. Pain intensity scores that are collected within 4 hours after a dose of rescue medication are deemed missing, and the missing values are imputed as the intensity recorded immediately before the administration of rescue medication.\nSPID-48 is the sum of the pain intensity difference (PID) over the 48 hour time period. A pain intensity score of 0 (no pain) to 10 (worse possible pain) is obtained before starting the study and throughout the 48 time period. The pain score at each assessment time is subtracted from the baseline pain score to provide the total sum score or SPID-48. A higher SPID-48 is better and indicates a reduction in pain intensity compared to the baseline score.\n4-point Verbal Categorical Rating Scale: Subjects report their pain on the 4-point VRS (none, mild, moderate, or severe) immediately before their first dose of the study drug (baseline VRS).\nSafety evaluations include adverse events, clinical laboratory assessments, clinical evaluation of vital signs, electrocardiograms, and physical examinations."}, "human NaV 1.8": {"target": "human NaV 1.8 (Homo sapiens, UniProt Q9Y5Y9)", "sequence (Q9Y5Y9 126-1722 limits assumed)": "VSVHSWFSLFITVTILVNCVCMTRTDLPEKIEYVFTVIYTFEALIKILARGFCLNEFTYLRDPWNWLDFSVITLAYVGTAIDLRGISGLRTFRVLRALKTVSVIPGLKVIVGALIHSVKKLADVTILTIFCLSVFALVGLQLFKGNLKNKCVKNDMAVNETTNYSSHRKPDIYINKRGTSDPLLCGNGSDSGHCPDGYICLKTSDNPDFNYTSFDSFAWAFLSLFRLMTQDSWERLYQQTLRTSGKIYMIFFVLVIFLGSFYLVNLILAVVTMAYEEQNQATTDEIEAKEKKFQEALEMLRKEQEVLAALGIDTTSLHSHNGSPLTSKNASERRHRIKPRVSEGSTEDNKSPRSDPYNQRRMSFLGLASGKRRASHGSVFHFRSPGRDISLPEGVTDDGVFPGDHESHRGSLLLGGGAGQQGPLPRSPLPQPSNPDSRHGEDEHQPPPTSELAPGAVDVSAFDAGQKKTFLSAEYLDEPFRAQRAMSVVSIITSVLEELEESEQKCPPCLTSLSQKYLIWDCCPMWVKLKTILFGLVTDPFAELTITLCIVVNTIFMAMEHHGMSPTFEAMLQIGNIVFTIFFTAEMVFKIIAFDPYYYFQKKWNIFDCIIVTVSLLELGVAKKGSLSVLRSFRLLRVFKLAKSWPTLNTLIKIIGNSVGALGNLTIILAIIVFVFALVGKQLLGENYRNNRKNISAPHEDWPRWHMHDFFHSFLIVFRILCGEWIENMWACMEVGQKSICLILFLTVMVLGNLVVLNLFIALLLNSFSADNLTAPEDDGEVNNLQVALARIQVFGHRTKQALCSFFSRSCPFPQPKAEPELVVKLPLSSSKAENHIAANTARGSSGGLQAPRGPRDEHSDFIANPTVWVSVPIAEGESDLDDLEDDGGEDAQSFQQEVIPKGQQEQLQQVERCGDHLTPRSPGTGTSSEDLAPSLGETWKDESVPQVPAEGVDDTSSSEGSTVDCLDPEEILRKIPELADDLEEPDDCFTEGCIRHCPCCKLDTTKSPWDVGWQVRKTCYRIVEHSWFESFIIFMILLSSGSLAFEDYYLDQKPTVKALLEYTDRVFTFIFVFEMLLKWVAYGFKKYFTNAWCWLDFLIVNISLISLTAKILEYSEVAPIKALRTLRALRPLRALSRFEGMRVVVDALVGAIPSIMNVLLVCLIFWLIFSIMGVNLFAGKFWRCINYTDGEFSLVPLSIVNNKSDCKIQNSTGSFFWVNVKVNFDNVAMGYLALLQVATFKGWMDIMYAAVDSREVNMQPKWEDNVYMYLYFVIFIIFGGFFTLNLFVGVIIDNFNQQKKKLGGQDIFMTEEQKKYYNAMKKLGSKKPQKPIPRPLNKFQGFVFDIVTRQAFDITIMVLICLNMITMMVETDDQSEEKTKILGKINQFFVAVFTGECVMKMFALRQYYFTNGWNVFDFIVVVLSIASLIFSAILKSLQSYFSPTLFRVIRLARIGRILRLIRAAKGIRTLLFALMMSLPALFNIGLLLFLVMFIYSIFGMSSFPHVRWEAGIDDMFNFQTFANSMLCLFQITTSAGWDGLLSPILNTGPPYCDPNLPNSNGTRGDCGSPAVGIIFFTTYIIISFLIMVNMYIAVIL", "test": "E-VIPR assay detecting and measuring NaV inhibition properties", "type": "cell-based", "settings": "HEK cells expressing a truncated form of human NaV 1.8; E-VIPR membrane potential readout", "from_the_text": "Sodium ion channels are voltage-dependent proteins that can be activated by inducing membrane voltage changes by applying electric fields. The electrical stimulation instrument and methods of use, referred to as E-VIPR, are described in International Publication No. WO 2002/008748 A3 and C.-J. Huang et al. Characterization of voltage-gated sodium channel blockers by electrical stimulation and fluorescence detection of membrane potential, 24 Nature Biotech. 439-46 (2006), both of which are incorporated by reference in their entirety. The instrument comprises a microtiter plate handler, an optical system for exciting the coumarin dye while simultaneously recording the coumarin and oxonol emissions, a waveform generator, a current- or voltage-controlled amplifier, and parallel electrode pairs that are inserted into assay plate wells. […]\n5 mM DiSBAC6(3), a voltage sensitive oxonol acceptor (CAS number 169211-44-3; 5-[3-(1,3-dihexylhexahydro-4,6-dioxo-2-thioxo-5-pyrimidinyl)-2-propen-1-ylidene]-1,3-dihexyldihydro-2-thioxo-4,6(1H,5H)-pyrimidinedione), in dry DMSO. The preparation of DiSBAC6(3) is analogous to that of DiSBAC4(3) as described in Voltage Sensing by Fluorescence Resonance Energy Transfer in Single Cells, Gonzalez, J. E. and Tsien, R. Y. (1995) Biophys. […]"}, "[2]": {"tested_on": "patients undergoing abdominoplasty", "test": "Study in patients undergoing abdominoplasty (NCT05034952)", "type": "in vivo, human"}, "[3]": {"settings": "High-dose: 100 mg first dose/50 mg every 12 hours, n = 60"}, "[4]": {"settings": "Low-dose: 20 mg first dose/10 mg every 12 hours, n = 33"}, "[5]": {"settings": "Mid-dose: 60 mg first dose/30 mg every 12 hours, n = 62"}}, "note": "pIC50: −log10 of the molar value.", "data": [{"smiles": "COc1c([C@H]2[C@H](C(=O)Nc3ccnc(C(N)=O)c3)O[C@@](C)(C(F)(F)F)[C@H]2C)ccc(F)c1F", "note": "(single isomer, unassigned) [Compound 1]", "values": [{"measurement": "Mean SPID48", "setting": "[1]; [3]", "value": 137.8}, {"measurement": "Mean SPID48 difference from placebo", "setting": "[1]; [3]", "value": 36.8}, {"measurement": "Mean SPID48", "setting": "[1]; [4]", "value": 112.9}, {"measurement": "Mean SPID48 difference from placebo", "setting": "[1]; [4]", "value": 11.9}, {"measurement": "Mean SPID48", "setting": "[1]; [5]", "value": 86.9}, {"measurement": "Mean SPID48 difference from placebo", "setting": "[1]; [5]", "value": "−14.1"}, {"measurement": "Onset of action", "setting": "[1]; bunionectomy study", "value": "rapid and was sustained through the duration of assessment"}, {"measurement": "SPID48 compared to placebo (primary endpoint), in words", "setting": "[1]; high dose, recorded on NPRS", "value": "statistically significant improvement"}, {"measurement": "pIC50", "setting": "human NaV 1.8", "value": "> 8.00"}, {"measurement": "SPID48, in words", "setting": "[2]", "value": "statistically significant improvement"}]}]}
